In ChEMBL document CHEMBL4190165 (Medchemcomm, 2016):

Assays:
[1] = Binding affinity to yeast Hsp90 by isothermal titration calorimetric method; parameters: species or system Saccharomyces cerevisiae
[2] = Inhibition of Saccharomyces cerevisiae PP30 HSP82 expressed in Escherichia coli BL21(DE3)pLysS by PK/LDH coupled spectrophotometric assay

Row | Kd [1] [nM] | IC50 [2] [nM] | Compound
1 | 1200 | 1000 to 5000 | COC1=C2C[C@@H](C)C[C@H](OC)[C@H](O)[C@@H](C)/C=C(\C)[C@H](OC(N)=O)[C@@H](OC)/C=C\C=C(/C)C(=O)NC(=CC1=O)C2=O [GELDANAMYCIN]
2 | 19 | 20 to 23 | C[C@@H]1C[C@H]2O[C@@H]2/C=C\C=C\C(=O)Cc2c(Cl)c(O)cc(O)c2C(=O)O1 [RADICICOL]
